Source: ChEMBL document CHEMBL3272144, “Application of the Free-Wilson technique to structurally related series of homologues. Quantitative structure-activity relationship studies of narcotic analgetics” (1977)

Species on record: Mus musculus
Test: Analgesic activity in mouse by hot-plate method
Format: functional

| Compound | log(1/C) |
| --- | --- |
| CC(=O)Oc1ccc2c(c1)[C@@]1(C)CCN(CCc3ccccc3)C(C2)[C@@H]1C (mixture of isomers) | 3.61 |
| CN1CC[C@]2(C)c3ccccc3CC1[C@@]2(C)O (mixture of isomers) | 0.68 |
| CC[C@H]1C2Cc3ccc(O)cc3[C@@]1(CC)CCN2CCc1ccccc1 (mixture of isomers) | 2.61 |
| CN1CC[C@@H]2c3cc(O)ccc3CC1[C@H]2CO (mixture of isomers) | 1.62 |
| CC(=O)Oc1ccc2c(c1)[C@@]1(C)CCN(C)C(C2)C1 (mixture of isomers) | 1.98 |
| CCCCC(=O)Oc1ccc2c(c1)[C@@]1(c3ccccc3)CCN(C)C(C2)[C@H]1C | 2.78 |
| C[C@H]1C2Cc3ccc(O)cc3[C@@]1(C)CCN2CCc1ccccc1 (stereo in doubt; 87) | 2.05 |
| C[C@]1(O)C2Cc3ccc(O)cc3[C@@]1(C)CCN2CCc1ccccc1 (mixture of isomers) | 2.05 |
| CN1CC[C@@]2(c3ccccc3)CC1Cc1ccccc12 (stereo in doubt; 89) | 1.87 |
| C[C@H]1C2Cc3ccc(OC(=O)c4cccnc4)cc3[C@@]1(C)CCN2CC1CC1 (mixture of isomers) | 2.59 |
| CC[C@H]1C2Cc3ccc(OC(C)=O)cc3[C@@]1(CC)CCN2C (mixture of isomers) | 2.36 |
